From patent publication US20070010671A1, “Novel quinazoline derivatives and methods of treatment related to the use thereof” (priority 2003, published 2007)

Each molecule was assayed against MCH receptor (Homo sapiens, UniProt Q99705) (assay: High throughput functional screening FLIPR/FDSS6000: inhibition of MCH-evoked intracellular Ca2+ changes). Conditions: class by percent of control at 10^-7 M or IC50.
Format: cell-based
Summary of the method: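 Cells expressing constitutively active MCH receptor, loaded with 4 μM Fluo4-AM for 1 h at 37 °C, were pretreated 3 min with compound, then challenged with MCH (50 nM for antagonist testing). MCH-evoked [Ca2+]i transients followed by FLIPR or FDSS (ex 488/em 530 nm) over 290 s.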

Compound	class
COc1ccccc1CNC(=S)N[C@H]1CC[C@@H](Nc2nc(N(C)C)c3ccccc3n2)CC1 [compound 367, N-(cis-4-{[4-(dimethylamino)quinazolin-2-yl]amino}cyclohexyl)-N′-(2-methoxybenzyl)thiourea]	2 (Class 2: The value of percent of control at 10^−7 M was from 40% to 60% or the value of IC50 was from 50 nM to 200 nM.)
CN(C)c1nc(N[C@H]2CC[C@@H](NC(=S)Nc3ccc4c(c3)OCCO4)CC2)nc2ccccc12 [compound 368, N-(2,3-dihydro-1,4-benzodioxin-6-yl)-N′-(cis-4-{[4-(dimethylamino)quinazolin-2-yl]amino}cyclohexyl)thiourea]	1 (Class 1: The value of percent of control at 10^−7 M was less than 40% or the value of IC50 was less than 50 nM.)
Cc1ccc(NC(=S)N[C@H]2CC[C@@H](Nc3nc(N(C)C)c4ccccc4n3)CC2)cc1C [compound 369]	3 (Class 3: The value of percent of control at 10^−7 M was more than 60% or the value of IC50 was more than 200 nM.)
CN(C)c1nc(N[C@H]2CC[C@@H](NC(=S)Nc3ccc4c(c3)OCO4)CC2)nc2ccccc12 [compound 370, N-1,3-benzodioxol-5-yl-N′-(cis-4-{[4-(dimethylamino)quinazolin-2-yl]amino}cyclohexyl)thiourea]	1 (Class 1: The value of percent of control at 10^−7 M was less than 40% or the value of IC50 was less than 50 nM.)
Cc1c(Cl)cccc1NC(=S)N[C@H]1CC[C@@H](Nc2nc(N(C)C)c3ccccc3n2)CC1 [compound 371]	1 (Class 1: The value of percent of control at 10^−7 M was less than 40% or the value of IC50 was less than 50 nM.)
CN(C)c1nc(N[C@H]2CC[C@@H](NC(=S)Nc3ccc(Br)cc3OC(F)(F)F)CC2)nc2ccccc12 [compound 372, N-[4-bromo-2-(trifluoromethoxy)phenyl]-N′-(cis-4-{[4-(dimethylamino)quinazolin-2-yl]amino}cyclohexyl)thiourea]	1 (Class 1: The value of percent of control at 10^−7 M was less than 40% or the value of IC50 was less than 50 nM.)
COc1cc(NC(=S)N[C@H]2CC[C@@H](Nc3nc(N(C)C)c4ccccc4n3)CC2)c(OC)cc1Cl [compound 373, N-(4-chloro-2,5-dimethoxyphenyl)-N′-(cis-4-{[4-(dimethylamino)quinazolin-2-yl]amino}cyclohexyl)thiourea]	1 (Class 1: The value of percent of control at 10^−7 M was less than 40% or the value of IC50 was less than 50 nM.)
CN(C)c1nc(N[C@H]2CC[C@@H](NC(=S)NCCCCc3ccccc3)CC2)nc2ccccc12 [compound 374]	2 (Class 2: The value of percent of control at 10^−7 M was from 40% to 60% or the value of IC50 was from 50 nM to 200 nM.)
CN(C)c1nc(N[C@H]2CC[C@@H](NC(=S)Nc3ccc(C(C)(C)C)cc3)CC2)nc2ccccc12 [compound 375]	3 (Class 3: The value of percent of control at 10^−7 M was more than 60% or the value of IC50 was more than 200 nM.)
CN(C)c1nc(N[C@H]2CC[C@@H](NC(=S)Nc3cc(Cl)ccc3F)CC2)nc2ccccc12 [compound 376]	3 (Class 3: The value of percent of control at 10^−7 M was more than 60% or the value of IC50 was more than 200 nM.)
CN(C)c1nc(N[C@H]2CC[C@@H](NC(=S)NCC3CC3)CC2)nc2ccccc12 [compound 379]	3 (Class 3: The value of percent of control at 10^−7 M was more than 60% or the value of IC50 was more than 200 nM.)
CCOC(=O)c1c(NC(=S)N[C@H]2CC[C@@H](Nc3nc(N(C)C)c4ccccc4n3)CC2)sc2c1CCCC2 [compound 380]	3 (Class 3: The value of percent of control at 10^−7 M was more than 60% or the value of IC50 was more than 200 nM.)
COC(=O)c1scc(C)c1NC(=S)N[C@H]1CC[C@@H](Nc2nc(N(C)C)c3ccccc3n2)CC1 [compound 381]	1 (Class 1: The value of percent of control at 10^−7 M was less than 40% or the value of IC50 was less than 50 nM.)
COC(=O)c1sccc1NC(=S)N[C@H]1CC[C@@H](Nc2nc(N(C)C)c3ccccc3n2)CC1 [compound 382]	1 (Class 1: The value of percent of control at 10^−7 M was less than 40% or the value of IC50 was less than 50 nM.)
CN(C)c1nc(N[C@H]2CC[C@@H](NC(=S)Nc3ccc(F)cc3Br)CC2)nc2ccccc12 [compound 383]	2 (Class 2: The value of percent of control at 10^−7 M was from 40% to 60% or the value of IC50 was from 50 nM to 200 nM.)
CN(C)c1nc(N[C@H]2CC[C@@H](NC(=S)Nc3ccc(F)c(Cl)c3)CC2)nc2ccccc12 [compound 384]	3 (Class 3: The value of percent of control at 10^−7 M was more than 60% or the value of IC50 was more than 200 nM.)
CCCCc1ccc(NC(=S)N[C@H]2CC[C@@H](Nc3nc(N(C)C)c4ccccc4n3)CC2)c(C)c1 [compound 385]	1 (Class 1: The value of percent of control at 10^−7 M was less than 40% or the value of IC50 was less than 50 nM.)
CN(C)c1ccc(NC(=S)N[C@H]2CC[C@@H](Nc3nc(N(C)C)c4ccccc4n3)CC2)cc1 [compound 386]	3 (Class 3: The value of percent of control at 10^−7 M was more than 60% or the value of IC50 was more than 200 nM.)
CCN(CC)CCCNC(=S)N[C@H]1CC[C@@H](Nc2nc(N(C)C)c3ccccc3n2)CC1 [compound 387]	3 (Class 3: The value of percent of control at 10^−7 M was more than 60% or the value of IC50 was more than 200 nM.)

Compound	class
CN(C)c1nc(N[C@H]2CC[C@@H](NC(=S)NCCN3CCOCC3)CC2)nc2ccccc12 [compound 388]	3 (Class 3: The value of percent of control at 10^−7 M was more than 60% or the value of IC50 was more than 200 nM.)
CN(C)c1nc(N[C@H]2CC[C@@H](NC(=S)Nc3ccc(N(C)C)c4ccccc34)CC2)nc2ccccc12 [compound 389, N-[4-(dimethylamino)-1-naphthyl]-N′-(cis-4-{[4-(dimethylamino)quinazolin-2-yl]amino}cyclohexyl)thiourea]	1 (Class 1: The value of percent of control at 10^−7 M was less than 40% or the value of IC50 was less than 50 nM.)
CN(C)c1nc(N[C@H]2CC[C@@H](NC(=S)Nc3cccnc3)CC2)nc2ccccc12 [compound 390]	3 (Class 3: The value of percent of control at 10^−7 M was more than 60% or the value of IC50 was more than 200 nM.)
CN(C)c1ccc(/N=N/c2ccc(NC(=S)N[C@H]3CC[C@@H](Nc4nc(N(C)C)c5ccccc5n4)CC3)cc2)cc1 [compound 391]	3 (Class 3: The value of percent of control at 10^−7 M was more than 60% or the value of IC50 was more than 200 nM.)
CN(C)c1nc(N[C@H]2CC[C@@H](NC(=S)NCCCN3CCOCC3)CC2)nc2ccccc12 [compound 392]	3 (Class 3: The value of percent of control at 10^−7 M was more than 60% or the value of IC50 was more than 200 nM.)
CCN(CC)c1ccc(NC(=S)N[C@H]2CC[C@@H](Nc3nc(N(C)C)c4ccccc4n3)CC2)cc1 [compound 393]	3 (Class 3: The value of percent of control at 10^−7 M was more than 60% or the value of IC50 was more than 200 nM.)
CN(C)c1nc(N[C@H]2CC[C@@H](NC(=S)Nc3ccc(/N=N/c4ccccc4)cc3)CC2)nc2ccccc12 [compound 394]	3 (Class 3: The value of percent of control at 10^−7 M was more than 60% or the value of IC50 was more than 200 nM.)
CN(C)c1nc(N[C@H]2CC[C@@H](NC(=S)NCCN3CCCCC3)CC2)nc2ccccc12 [compound 395]	3 (Class 3: The value of percent of control at 10^−7 M was more than 60% or the value of IC50 was more than 200 nM.)
CN(C)c1nc(N[C@H]2CC[C@@H](NC(=S)NCc3cccnc3)CC2)nc2ccccc12 [compound 396]	3 (Class 3: The value of percent of control at 10^−7 M was more than 60% or the value of IC50 was more than 200 nM.)
CN(C)c1nc(N[C@H]2CC[C@@H](NC(=S)Nc3ccc(-n4cccn4)cc3)CC2)nc2ccccc12 [compound 397]	3 (Class 3: The value of percent of control at 10^−7 M was more than 60% or the value of IC50 was more than 200 nM.)
CN(C)c1nc(N[C@H]2CC[C@@H](NC(=S)Nc3cccc4nsnc34)CC2)nc2ccccc12 [compound 398]	3 (Class 3: The value of percent of control at 10^−7 M was more than 60% or the value of IC50 was more than 200 nM.)
CN(C)c1nc(N[C@H]2CC[C@@H](NC(=S)Nc3ccc4nsnc4c3)CC2)nc2ccccc12 [compound 399]	3 (Class 3: The value of percent of control at 10^−7 M was more than 60% or the value of IC50 was more than 200 nM.)
Cc1noc(C)c1NC(=S)N[C@H]1CC[C@@H](Nc2nc(N(C)C)c3ccccc3n2)CC1 [compound 400]	3 (Class 3: The value of percent of control at 10^−7 M was more than 60% or the value of IC50 was more than 200 nM.)
CN(C)c1nc(N[C@H]2CC[C@@H](NC(=S)Nc3ccc(-c4cnco4)cc3)CC2)nc2ccccc12 [compound 401]	3 (Class 3: The value of percent of control at 10^−7 M was more than 60% or the value of IC50 was more than 200 nM.)
Cc1onc(-c2ccccc2)c1NC(=S)N[C@H]1CC[C@@H](Nc2nc(N(C)C)c3ccccc3n2)CC1 [compound 402, N-(cis-4-{[4-(dimethylamino)quinazolin-2-yl]amino}cyclohexyl)-N′-(5-methyl-3-phenylisoxazol-4-yl)thiourea]	1 (Class 1: The value of percent of control at 10^−7 M was less than 40% or the value of IC50 was less than 50 nM.)
CN(C)c1nc(N[C@H]2CC[C@@H](NC(=S)Nc3ccc(N4CCOCC4)nc3)CC2)nc2ccccc12 [compound 403]	3 (Class 3: The value of percent of control at 10^−7 M was more than 60% or the value of IC50 was more than 200 nM.)
CN(C)c1nc(N[C@H]2CC[C@@H](NC(=S)Nc3ccc(Oc4ccccc4)nc3)CC2)nc2ccccc12 [compound 404]	3 (Class 3: The value of percent of control at 10^−7 M was more than 60% or the value of IC50 was more than 200 nM.)
CC(=O)c1cccc(NC(=O)NC[C@H]2CC[C@@H](Nc3nc(N(C)C)c4ccccc4n3)CC2)c1 [compound 405]	3 (Class 3: The value of percent of control at 10^−7 M was more than 60% or the value of IC50 was more than 200 nM.)
